Measurements from ChEMBL document CHEMBL1201862, “PubChem BioAssay data set” (2004).
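Dose response: 5 concentrations. Exposure: 48 h. Format: 96-well plates. Endpoint: linear interpolation; highest concentration if not reached. GI50 = concentration required for 50% inhibition of growth.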 Calls of active or inactive are those of the source. No stated cut-off is given here; in the data, active = GI50 up to about 1.1 µM and inactive = higher.

Tests used:
Experiment in all cases: NCI anticancer screen, dose series, 48 h
NCI-H23 = test system: NCI-H23
BT-549 = test system: BT-549
ACHN = test system: ACHN
RPMI-8226 = test system: RPMI-8226
OVCAR-5 = test system: OVCAR-5
PC-3 = test system: PC-3
A549 = test system: A549
LOX IMVI = test system: LOX IMVI
SNB-19 = test system: SNB-19
SNB-75 = test system: SNB-75
786-0 = test system: 786-0
NCI-H226 = test system: NCI-H226
UO-31 = test system: UO-31
TK-10 = test system: TK-10
NCI/ADR-RES = test system: NCI/ADR-RES
OVCAR-4 = test system: OVCAR-4
OVCAR-3 = test system: OVCAR-3
SR = test system: SR
HOP-62 = test system: HOP-62

Row | Compound | GI50 (NCI-H23) | GI50 (BT-549) | GI50 (ACHN) | GI50 (RPMI-8226) | GI50 (OVCAR-5) | GI50 (PC-3) | GI50 (A549) | GI50 (LOX IMVI) | GI50 (SNB-19) | GI50 (SNB-75) | GI50 (786-0) | GI50 (NCI-H226) | GI50 (UO-31) | GI50 (TK-10) | GI50 (NCI/ADR-RES) | GI50 (OVCAR-4) | GI50 (OVCAR-3) | GI50 (SR) | GI50 (HOP-62)
1 | C1CCNCC1.Oc1ncnc2[nH]cc(CN3CCCCC3)c12 | > 100 µM (inactive) | > 100 µM (inactive) | 98.4 µM (inactive) | 22 µM (inactive) | > 100 µM (inactive) | > 100 µM (inactive) | > 100 µM (inactive) | > 100 µM (inactive) | > 100 µM (inactive) | 55.5 µM (inactive) | 22.9 µM (inactive) | > 100 µM (inactive) | 85.3 µM (inactive) | 46 µM (inactive) | > 100 µM (inactive) | 62.4 µM (inactive) | > 100 µM (inactive) | 37.7 µM (inactive) | > 100 µM (inactive)
2 | Cc1c2c(n3c(nc4ccccc43)c1C#N)SCC2 | > 10 µM (inactive) | > 10 µM (inactive) | > 10 µM (inactive) | > 10 µM (inactive) | > 10 µM (inactive) | > 10 µM (inactive) | > 10 µM (inactive) | > 10 µM (inactive) | > 10 µM (inactive) | > 10 µM (inactive) | 8.71 µM (inactive) | > 10 µM (inactive) | > 10 µM (inactive) | > 10 µM (inactive) | > 10 µM (inactive) | > 10 µM (inactive) | > 10 µM (inactive) | > 10 µM (inactive) | > 10 µM (inactive)
3 | C=C1c2nc3ccccc3n2C=C(c2ccc(OC)cc2)N1c1ccc(OCCN2CCOCC2)cc1 | > 25.2 µM (inactive) | 49.2 µM (inactive) | 46.9 µM (inactive) | 1.91 µM (inactive) | > 100 µM (inactive) | 9.51 µM (inactive) | 28.4 µM (inactive) | 13.3 µM (inactive) | > 100 µM (inactive) | > 100 µM (inactive) | 36.9 µM (inactive) | > 100 µM (inactive) | 24.7 µM (inactive) | 18.1 µM (inactive) | 5.21 µM (inactive) | 11.1 µM (inactive) | > 100 µM (inactive) | 4.41 µM (inactive) | > 100 µM (inactive)
4 | CC(=O)NNc1nc(C)c(C(/C=C/c2ccc3c(c2)OCO3)=N/Nc2ccccc2)s1 | > 100 µM (inactive) | > 100 µM (inactive) | > 100 µM (inactive) | > 100 µM (inactive) | > 100 µM (inactive) | > 100 µM (inactive) | > 100 µM (inactive) | > 100 µM (inactive) | > 100 µM (inactive) | > 100 µM (inactive) | > 100 µM (inactive) | > 100 µM (inactive) | > 100 µM (inactive) | > 100 µM (inactive) | > 100 µM (inactive) | > 100 µM (inactive) | > 100 µM (inactive) | > 100 µM (inactive) | > 100 µM (inactive)
5 | CC(NNC(=O)c1ccncc1)c1ccccc1 (stereo not drawn) | > 100 µM (inactive) | > 100 µM (inactive) | > 100 µM (inactive) | > 100 µM (inactive) | > 100 µM (inactive) | > 100 µM (inactive) | > 100 µM (inactive) | > 100 µM (inactive) | > 100 µM (inactive) | > 100 µM (inactive) | > 100 µM (inactive) | > 100 µM (inactive) | > 100 µM (inactive) | > 100 µM (inactive) | > 100 µM (inactive) | > 100 µM (inactive) | > 100 µM (inactive) | > 100 µM (inactive) | > 100 µM (inactive)
6 | C=C1C(=O)OC2C1C(OC(=O)/C(C)=C/C)CC(O)(CCl)C1C(OC(C)=O)C=C(C)C21O (stereo not drawn) | 16.6 µM (inactive) | 8.85 µM (inactive) | 8.97 µM (inactive) | 7.01 µM (inactive) | 17.3 µM (inactive) | 16.1 µM (inactive) | 28.2 µM (inactive) | 6.49 µM (inactive) | > 42.9 µM (inactive) | 21.8 µM (inactive) | 11.6 µM (inactive) | 30.3 µM (inactive) | 18.6 µM (inactive) | 13.8 µM (inactive) | 16.3 µM (inactive) | 17.2 µM (inactive) | 8.93 µM (inactive) | 3.8 µM (inactive) | 34.8 µM (inactive)
7 | CN(C)CCn1c(=O)c2ccc(NCCCN(C)CCCNc3ccc4c(=O)n(CCN(C)C)c(=O)n5c6ccccc6c(=O)c3c45)c3c(=O)c4ccccc4n(c1=O)c23 | < 0.01 µM (active) | 0.117 µM (active) | < 0.01 µM (active) | < 0.01 µM (active) | 0.145 µM (active) | < 0.01 µM (active) | < 0.01 µM (active) | < 0.01 µM (active) | < 0.01 µM (active) | < 0.0117 µM (active) | < 0.01 µM (active) | < 0.01 µM (active) | < 0.0285 µM (active) | 0.0593 µM (active) | 0.0339 µM (active) | < 0.01 µM (active) | 0.0778 µM (active) | < 0.01 µM (active) | < 0.0161 µM (active)
